# According to publication PMC11486972 (Hepatology (Baltimore, Md.), 2024):
# pEC50: −log10 of the molar value.
# Molecular target: cathepsin S (CTSS) (Homo sapiens, UniProt P25774)
# Experiment: cell-free enzyme assay with recombinant CTSS
# Assay type: biochemical
# Sequence of cathepsin S (CTSS) (P25774 115-331): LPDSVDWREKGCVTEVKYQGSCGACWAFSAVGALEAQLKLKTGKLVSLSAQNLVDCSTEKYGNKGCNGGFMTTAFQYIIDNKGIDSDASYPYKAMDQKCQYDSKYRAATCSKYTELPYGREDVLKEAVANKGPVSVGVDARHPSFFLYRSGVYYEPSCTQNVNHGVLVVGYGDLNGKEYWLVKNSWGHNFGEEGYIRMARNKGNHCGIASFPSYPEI
smiles,measurement,value
CN1CCN(C(=O)N[C@@H](Cc2ccccc2)C(=O)N[C@H](/C=C/S(=O)(=O)c2ccccc2)CCc2ccccc2)CC1 [K11777],pEC50,6.05
